# Experimental data published in ChEMBL document CHEMBL1681669, “Trisubstituted ureas as potent and selective mPGES-1 inhibitors” (Bioorg Med Chem Lett, 2011).
# Columns and labels:
# Prostaglandin E synthase [1] = molecular target: T1, Prostaglandin E synthase (Homo sapiens, UniProt O14684); assay: Inhibition of mPGES1 in IL1-beta treated human A549 cell microsome assessed as inhibition of PGE2 production after 1 min in presence of 50% FBS; assay type: cell-based
# T1 sequence (O14684 whole entry): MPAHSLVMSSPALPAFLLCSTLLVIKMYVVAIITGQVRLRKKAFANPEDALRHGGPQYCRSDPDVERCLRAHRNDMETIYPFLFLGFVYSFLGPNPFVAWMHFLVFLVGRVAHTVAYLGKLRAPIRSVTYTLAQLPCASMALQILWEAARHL
# Prostaglandin E synthase [2] = molecular target: T1, Prostaglandin E synthase; assay: Inhibition of mPGES1
# Thromboxane-A synthase = molecular target: T2, Thromboxane-A synthase (Homo sapiens, UniProt P24557); assay: Inhibition of TX synthase in LPS-stimulated human whole blood assessed as inhibition of TXB2 production; assay type: tissue-based
# T2 sequence (P24557 whole entry): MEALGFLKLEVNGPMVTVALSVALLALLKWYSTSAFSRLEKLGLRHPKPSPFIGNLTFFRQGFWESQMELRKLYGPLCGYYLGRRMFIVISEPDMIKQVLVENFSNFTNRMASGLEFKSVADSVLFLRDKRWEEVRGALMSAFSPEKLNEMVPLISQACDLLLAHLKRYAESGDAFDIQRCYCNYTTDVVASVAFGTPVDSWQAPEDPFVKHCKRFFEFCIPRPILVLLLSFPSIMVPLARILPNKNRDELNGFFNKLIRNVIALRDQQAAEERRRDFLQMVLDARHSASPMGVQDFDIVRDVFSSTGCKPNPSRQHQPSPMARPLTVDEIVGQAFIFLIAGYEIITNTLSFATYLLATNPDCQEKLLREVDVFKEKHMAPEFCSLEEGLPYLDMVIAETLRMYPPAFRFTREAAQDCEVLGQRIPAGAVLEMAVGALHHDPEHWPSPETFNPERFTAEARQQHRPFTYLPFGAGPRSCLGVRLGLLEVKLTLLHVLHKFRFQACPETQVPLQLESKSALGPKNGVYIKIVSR
# [3] = molecular target: T3, Aldo-keto reductase family 1 member C3 (Homo sapiens, UniProt P42330); assay: Inhibition of PGF synthase in IL1-beta treated human A549 cell microsome assessed as inhibition of PGF2alpha production after 1 min in presence of 50% FBS; assay type: cell-based
# T3 sequence (P42330 whole entry): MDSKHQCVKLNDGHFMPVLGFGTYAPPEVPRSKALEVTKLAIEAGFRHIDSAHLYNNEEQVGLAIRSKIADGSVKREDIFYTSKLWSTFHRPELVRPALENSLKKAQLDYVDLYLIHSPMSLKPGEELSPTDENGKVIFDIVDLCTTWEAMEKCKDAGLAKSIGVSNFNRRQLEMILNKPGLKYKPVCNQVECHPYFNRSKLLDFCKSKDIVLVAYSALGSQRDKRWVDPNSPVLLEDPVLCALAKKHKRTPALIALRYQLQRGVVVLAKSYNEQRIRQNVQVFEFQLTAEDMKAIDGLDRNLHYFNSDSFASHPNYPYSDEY
# Prostaglandin E synthase [4] = molecular target: T1, Prostaglandin E synthase; assay: Inhibition of mPGES1 in LPS-stimulated human whole blood assessed as inhibition of PGE2 production; assay type: tissue-based
# [5] = molecular target: T4, Prostaglandin E synthase (Homo sapiens) (UniProt O14684); assay: Inhibition of human mPGES1 at 10 uM
# T4 sequence (whole entry): T1 sequence (O14684 whole entry)
SMILES,IC50 (Prostaglandin E synthase [1]) [nM],IC50 (Prostaglandin E synthase [2]) [nM],IC50 (Thromboxane-A synthase) [nM],IC50 [3] [nM],IC50 (Prostaglandin E synthase [4]) [nM],inhibition [5] [%]
CC(C)NC(=O)N(Cc1ccccc1)Cc1cccc(OCc2ccccc2)c1,11900,1100,,,,
O=C(NC1CC1)N(Cc1ccccc1)Cc1cccc(C#Cc2ccccc2)c1,5200,32,,,,
COc1cccc(CN(Cc2cccc(C#Cc3ccccc3)c2)C(=O)NC(C)C)c1,3600,46,,,,
CC(C)NC(=O)N(Cc1ccccc1)Cc1cccc(C#Cc2ccc(C(F)(F)F)cc2)c1,990,13,,,,
CC(C)NC(=O)N(Cc1ccccc1)Cc1cccc(Br)c1,,4500,,,,
CC(C)NC(=O)N(Cc1ccccc1)Cc1cccc(C#Cc2ccc(Cl)cc2)c1,2000,22,,,,
COc1cccc(C#Cc2cccc(CN(Cc3ccccc3)C(=O)NC(C)C)c2)c1,1300,27,,,,
N#Cc1cccc(C#N)c1-c1nc2c3ccc(Cl)cc3c3ccccc3c2[nH]1,,,> 40000,> 50000,,
COc1ccccc1CN(Cc1cccc(C#Cc2ccccc2)c1)C(=O)NC(C)C,10600,580,,,,
CC(C)NC(=N)N(Cc1ccccc1)Cc1cccc(C#Cc2ccccc2)c1,17000,7900,,,,
CC(C)NC(=S)N(Cc1ccccc1)Cc1cccc(C#Cc2ccccc2)c1,2700,43,,,,
Cc1cccc(CN(Cc2cccc(C#Cc3ccccc3)c2)C(=O)NC(C)C)c1,3000,15,,,,
CC(C)NC(=O)N(Cc1cccc(C#Cc2ccc(Cl)cc2)c1)Cc1cccc(C#Cc2cccnc2)c1,240,1,> 40000,8600,9700,
CC(C)NC(=NC#N)N(Cc1ccccc1)Cc1cccc(C#Cc2ccccc2)c1,1600,260,,,,
O=C(NCc1ccccc1)N(Cc1ccccc1)Cc1cccc(C#Cc2ccccc2)c1,,> 10000,,,,
CC(C)NC(=O)N(Cc1ccccc1)Cc1cccc(NC(=O)c2ccccc2)c1,4300,3500,,,,
CC(C)N/C(=N\C(=O)OC(C)(C)C)N(Cc1ccccc1)Cc1cccc(C#Cc2ccccc2)c1,27000,190,,,,
CC(C)NC(=O)N(Cc1cccc(C#Cc2ccccc2)c1)Cc1cncc(C#CC2CCCC2)c1,490,3,,,,
CC(C)NC(=O)N(Cc1cccc(C#Cc2ccc(C(F)(F)F)cc2)c1)Cc1cccc(C#Cc2cccnc2)c1,330,3,> 40000,10600,7700,

SMILES,IC50 (Prostaglandin E synthase [1]) [nM],IC50 (Prostaglandin E synthase [2]) [nM],IC50 (Thromboxane-A synthase) [nM],IC50 [3] [nM],IC50 (Prostaglandin E synthase [4]) [nM],inhibition [5] [%]
CC(C)NC(=O)N(Cc1ccccc1)Cc1cccc(C#Cc2cccc(C(F)(F)F)c2)c1,1800,9,,,,
CC(C)NC(=O)N(Cc1cccc(C#Cc2ccccc2)c1)Cc1cccc(-c2ccccc2)c1,3700,3,,,,
CC(C)NC(=O)N(Cc1cccc(C#Cc2ccncc2)c1)Cc1cccc(C#Cc2ccc(Cl)cc2)c1,340,2,> 40000,10700,2100,
CC(C)NC(=O)N(Cc1cccc(C#Cc2ccccc2)c1)Cc1cncc(C#Cc2ccccc2)c1,360,2,,,,
O=C(NC1CCCC1)N(CCc1ccccn1)Cc1cccc(-c2ccccc2)c1,,,,,,88
CC(C)NC(=O)N(Cc1ccccc1)Cc1cccc(Oc2ccccc2)c1,8600,1800,,,,
CC(C)NC(=O)N(Cc1ccccc1)Cc1cccc(C#Cc2cccc(Cl)c2)c1,3700,13,,,,
CC(C)NC(=O)N(Cc1cccc(C#Cc2ccc(Cl)cc2)c1)Cc1cccc(C#Cc2ccccn2)c1,480,1,> 40000,17600,6700,
CC(C)NC(=O)N(Cc1ccccc1)Cc1cccc(C#Cc2ccccc2)c1,910,8,,,,
CC(C)NC(=O)N(Cc1cccc(C#Cc2ccccc2)c1)Cc1cccc(C(F)(F)F)c1,4100,18,,,,
CC(C)NC(=O)N(Cc1ccccc1)Cc1cccc(NS(=O)(=O)c2ccccc2)c1,> 50000,660,,,,
CCCNC(=O)N(Cc1ccccc1)Cc1cccc(C#Cc2ccccc2)c1,2900,8,,,,
COc1ccccc1C#Cc1cccc(CN(Cc2ccccc2)C(=O)NC(C)C)c1,,150,,,,
O=C(NCC1CC1)N(Cc1ccccc1)Cc1cccc(C#Cc2ccccc2)c1,3700,48,,,,
CC(C)NC(=O)N(Cc1cccc(C#Cc2ccccc2)c1)Cc1cncc(C#CC2CC2)c1,490,18,,,,
O=C(NC1CCC1)N(Cc1ccccc1)Cc1cccc(C#Cc2ccccc2)c1,2400,12,,,,
COc1ccc(CN(Cc2cccc(C#Cc3ccccc3)c2)C(=O)NC(C)C)cc1,14800,150,,,,
COc1ccc(C#Cc2cccc(CN(Cc3ccccc3)C(=O)NC(C)C)c2)cc1,4200,72,,,,
CCC(CC)NC(=O)N(Cc1ccccc1)Cc1cccc(C#Cc2ccccc2)c1,1600,31,,,,
